Experimental data reported in patent US10584098B2, “Quinolone-3-diarylethers” (OREGON HEALTH & SCIENCE UNIVERSITY, priority 2015, dated 2020).
Read-outs that look alike come from different tables or passages of the source. Each block holds one molecule with its values, some of them ahead of it.

Assays:
[1] = system: P. yoelii (Kenya strain, MR4 MRA-428); assay: Single dose cure (SDC) of patent blood stage murine malaria infection; format: in vivo, Plasmodium yoelii; conditions: mice; for minimal effective dose: Plasmodium yoelii, po, 720 h, single dose, read-out: Lowest fully effective single dose cure P. yoelii; for lowest fully protective single-dose cure (SDC): single oral dose in PEG-400, parasite free 30 days
Description: As described above, mice (female, CF1, Charles River Labs) were infected intravenously with 10^5 P. yoelii (Kenya strain, MR4 MRA-428/Murine LDH Elevating Virus-Free) parasitized erythrocytes from a donor animal. Drug administration commenced the day after the animals were inoculated (Day 1). The test compounds were dissolved in PEG-400 and administered by oral gavage once. On the 5th day blood films were prepared and the extent of parasitemia was determined by microscopic examination of Giemsa stained smears. Animals remaining parasite free 30 days after the last drug dose were considered cured of their infection.

P. falciparum strain D6 = assay: SYBR green antiplasmodial assay, strain D6; format: cell-based, Plasmodium falciparum
P. falciparum strain Dd2 = assay: SYBR green antiplasmodial assay, strain Dd2; format: cell-based, Plasmodium falciparum; conditions: read-out: IC50, nM, P. falciparum strain Dd2
[2] = system: P. falciparum strain Tm90-C2B; assay: SYBR green antiplasmodial assay, strain Tm90-C2B; format: cell-based, Plasmodium falciparum; conditions: read-out: IC50, nM, P. falciparum strain Tm90-C2B
P. yoelii = assay: 4-day suppression test in P. yoelii infected mice; format: in vivo, Plasmodium yoelii; conditions: dosing on 4 sequential days, smears on Day 5
[3] = Oral bioavailability in mice; format: in vivo; conditions: relative to ELQ-300
P. falciparum = assay: In vitro intrinsic antiplasmodial activity against all test strains; format: cell-based, Plasmodium falciparum
[4] = Chemical stability in solvent / acidic conditions; format: physicochemical
Description: Ethyl chloroformate is then added dropwise. The reaction goes to completion in minutes upon the addition of the chloroformate forming one regioisomer in very high yield. […] Results are summarized in Scheme 1

[5] = Oral bioavailability in rats; format: in vivo; conditions: relative to ELQ-300
[6] = target: Plasmodium falciparum cytochrome bc1 complex (Plasmodium falciparum, UniProt Q02768); assay: Inhibition of cytochrome bc1 complex; format: biochemical
[7] = In vivo efficacy of earlier prodrug versus parent compound; conditions: compared to the parent compound ELQ-300
[8] = Stability of prodrug to metabolism
[9] = human, microsomes
[10] = Plasmodium falciparum, D6; read-out: P. falciparum strain D6, IC50
[11] = 72 h, chloroquine sensitive strain; Table 1 of Example 4; read-out: IC50, nM, P. falciparum strain D6
[12] = 72 h, multidrug resistant strain
[13] = 72 h, resistant to chloroquine and atovaquone
[14] = single oral doses in the range of 1 to 20 mg/kg
[15] = Plasmodium falciparum, D6, 72 h; read-out: IC50, nM, P. falciparum strain D6
[16] = Plasmodium falciparum, DD2, 72 h, multidrug resistant strain
[17] = Plasmodium falciparum, TM90, 72 h, resistant to chloroquine and atovaquone

Structure (SMILES): CCN(CC)CCCC(C)Nc1ccnc2cc(Cl)ccc12 (centres unmarked) [Chloroquine, reference compound]
IC50 (P. falciparum strain D6; Plasmodium falciparum, D6, 72 h, read-out: IC50, nM, P. falciparum strain D6): 10 nM
IC50 (P. falciparum strain Dd2; Plasmodium falciparum, DD2, 72 h): 137 nM
IC50 ([2]; Plasmodium falciparum, TM90, 72 h): 98 nM

Structure (SMILES): CCOC(=O)OC(C)Oc1c(-c2ccc(Oc3ccc(OC(F)(F)F)cc3)cc2)c(C)nc2cc(OC)c(Cl)cc12 (centres unmarked) [ELQ-387]
IC50 (P. falciparum strain D6; [11]): 326 nM
IC50 (P. falciparum strain Dd2; [12]): 141 nM
IC50 [2, 13]: 231 nM

Structure (SMILES): COc1cc2[nH]c(C)c(-c3ccc(Oc4ccc(OC(F)(F)F)cc4)cc3)c(=O)c2cc1Cl [ELQ-300, reference compound]
minimal effective dose [1]: > 20 mg/kg
parasitemia suppression [1, 14]: suppressed parasitemia completely
recrudescence [1, 14]: recrudescence occurred within two weeks of dosing
IC50 (P. falciparum strain D6; [15]): 6 nM
IC50 (P. falciparum strain D6; [10]): 3.1 nM
IC50 (P. falciparum strain Dd2; [16]): 6 nM
IC50 [2, 17]: 2 nM
inhibition of cytochrome bc1 complex [6]: sub-nanomolar

Structure (SMILES): COc1cc2nc(C)c(-c3ccc(Oc4ccc(OC(F)(F)F)cc4)cc3)c(OC(=O)c3ccccc3)c2cc1Cl [ELQ-379, 6-chloro-7-methoxy-2-methyl-3-(4-(4-(trifluoromethoxy)phenoxy)phenyl)quinolin-4-yl benzoate]
IC50 (P. falciparum strain D6; [10]): 2.5 nM

Structure (SMILES): COc1cc2nc(C)c(-c3ccc(Oc4ccc(OC(F)(F)F)cc4)cc3)c(OC(=O)N(C)C)c2cc1Cl [ELQ-301]
in vivo efficacy compared to ELQ-300 [7]: inferior in vivo efficacy
stability to metabolism [8]: stable to metabolism

Structure (SMILES): COc1cc2nc(C)c(-c3ccc(Oc4ccc(OC(F)(F)F)cc4)cc3)c(OC(=O)OCC3COC(C)(C)O3)c2cc1Cl (centres unmarked) [ELQ-374, 6-chloro-7-methoxy-2-methyl-3-(4-(4-(trifluoromethoxy)phenoxy)phenyl)quinolin-4-yl ((2,2-dimethyl-1,3-dioxolan-4-yl)methyl) carbonate]
minimal effective dose [1]: 4 mg/kg
IC50 (P. falciparum strain D6; [10]): 2.7 nM

Structure (SMILES): COc1cc2nc(C)c(-c3ccc(Oc4ccc(OC(F)(F)F)cc4)cc3)c(OC(=O)C(C)(C)C)c2cc1Cl [ELQ-357, 6-chloro-7-methoxy-2-methyl-3-(4-(4-(trifluoromethoxy)phenoxy)phenyl)quinolin-4-yl pivalate]
minimal effective dose [1]: 4 mg/kg
IC50 (P. falciparum strain D6; [10]): 3.5 nM

Structure (SMILES): O=C1C(O)=C([C@H]2CC[C@H](c3ccc(Cl)cc3)CC2)C(=O)c2ccccc21 [Atovaquone, reference compound]
IC50 (P. falciparum strain D6; [15]): 0.2 nM
IC50 (P. falciparum strain Dd2; [16]): 0.2 nM
IC50 [2, 17]: > 250 nM

Structure (SMILES): CCOC(=O)OCOc1c(-c2ccc(Oc3ccc(OC(F)(F)F)cc3)cc2)c(C)nc2cc(OC)c(Cl)cc12 [ELQ-331]
lowest fully protective single-dose cure (SDC) [1]: 2.5 mg/kg
IC50 (P. falciparum strain D6; [11]): 6 nM
IC50 [2, 13]: 4 nM
t1/2 [9]: 37.7 min

Structure (SMILES): COc1cc2nc(C)c(-c3ccc(Oc4ccc(OC(F)(F)F)cc4)cc3)c(OCOC(=O)OC(C)C)c2cc1Cl [ELQ-330]
lowest fully protective single-dose cure (SDC) [1]: 5 mg/kg
IC50 (P. falciparum strain D6; [11]): 62 nM
IC50 (P. falciparum strain Dd2; [12]): 38 nM
IC50 [2, 13]: 47 nM

More lines, main results first:

IC50 (P. falciparum strain D6; [10]): 2.5 nM
Structure (SMILES): C=CCOC(=O)Oc1c(-c2ccc(Oc3ccc(OC(F)(F)F)cc3)cc2)c(C)nc2cc(OC)c(Cl)cc12 [ELQ-359, allyl (6-chloro-7-methoxy-2-methyl-3-(4-(4-(trifluoromethoxy)phenoxy)phenyl)quinolin-4-yl) carbonate]
minimal effective dose [1]: 4 mg/kg

IC50 (P. falciparum strain D6; [10]): 2.5 nM
oral bioavailability [3]: enhanced over ELQ-300
IC50 values against all test strains (P. falciparum): low to sub-nanomolar range
chemical stability ([4]; 50/50 mixtures of methanol and water at pH 3 and 8 overnight): chemically stable
oral bioavailability [5]: enhanced over ELQ-300
Structure (SMILES): CCOC(=O)Oc1c(-c2ccc(Oc3ccc(OC(F)(F)F)cc3)cc2)c(C)nc2cc(OC)c(Cl)cc12 [ELQ-337, 6-chloro-7-methoxy-2-methyl-3-(4-(4-(trifluoromethoxy)phenoxy)phenyl)quinolin-4-yl ethyl carbonate]
minimal effective dose [1]: 3 mg/kg
animals in which single dose failed ([1]; 1 mg/kg, on Day 12): 4/4
single dose cures (SDC), animals cured ([1]; doses as low as 3 mg/kg): 4/4
ED50 (P. yoelii): 0.02 mg/kg/day
ED90 (P. yoelii): 0.05 mg/kg/day
ED99 (P. yoelii): 0.075 mg/kg/day

IC50 (P. falciparum strain D6; [10]): 3 nM
Structure (SMILES): COCCOC(=O)Oc1c(-c2ccc(Oc3ccc(OC(F)(F)F)cc3)cc2)c(C)nc2cc(OC)c(Cl)cc12 [ELQ-354, 6-chloro-7-methoxy-2-methyl-3-(4-(4-(trifluoromethoxy)phenoxy)phenyl)quinolin-4-yl(2-methoxyethyl) carbonate]
minimal effective dose [1]: 3 mg/kg

IC50 (P. falciparum strain D6; [10]): 6 nM
Structure (SMILES): COc1cc2nc(C)c(-c3ccc(Oc4ccc(OC(F)(F)F)cc4)cc3)c(OC(=O)OC(C)(C)C)c2cc1Cl [ELQ-358, tert-butyl (6-chloro-7-methoxy-2-methyl-3-(4-(4-(trifluoromethoxy)phenoxy)phenyl)quinolin-4-yl) carbonate]
minimal effective dose [1]: > 4 mg/kg

IC50 (P. falciparum strain D6; [10]): 3.9 nM
Structure (SMILES): COc1cc2nc(C)c(-c3ccc(Oc4ccc(OC(F)(F)F)cc4)cc3)c(OC(=O)OC3CCS(=O)(=O)C3)c2cc1Cl (centres unmarked) [ELQ-355, 6-chloro-7-methoxy-2-methyl-3-(4-(4-(trifluoromethoxy)phenoxy)phenyl)quinolin-4-yl (1,1-dioxidotetrahydrothiophen-3-yl) carbonate]
minimal effective dose [1]: 4 mg/kg

IC50 (P. falciparum strain D6; [10]): 8.2 nM
Structure (SMILES): COc1cc2nc(C)c(-c3ccc(Oc4ccc(OC(F)(F)F)cc4)cc3)c(OC(=O)C(C)C)c2cc1Cl [ELQ-375, 6-chloro-7-methoxy-2-methyl-3-(4-(4-(trifluoromethoxy)phenoxy)phenyl)quinolin-4-yl isobutyrate]
minimal effective dose [1]: 4 mg/kg

IC50 (P. falciparum strain D6; [10]): 2.5 nM
Structure (SMILES): COC(=O)Oc1c(-c2ccc(Oc3ccc(OC(F)(F)F)cc3)cc2)c(C)nc2cc(OC)c(Cl)cc12 [ELQ-336, 6-chloro-7-methoxy-2-methyl-3-(4-(4-(trifluoromethoxy)phenoxy)phenyl)quinolin-4-yl methyl carbonate]
minimal effective dose [1]: 4 mg/kg

IC50 (P. falciparum strain D6; [10]): 3.1 nM
Structure (SMILES): COc1cc2nc(C)c(-c3ccc(Oc4ccc(OC(F)(F)F)cc4)cc3)c(OC(=O)OCC3COC(=O)O3)c2cc1Cl (centres unmarked) [ELQ-373, 6-chloro-7-methoxy-2 methyl-3-(4-(4-(trifluoromethoxy)phenoxy)phenyl)quinolin-4-yl ((2-oxo-1,3-dioxolan-4-yl)methyl) carbonate]
minimal effective dose [1]: 4 mg/kg

stability in methanol [4]: decomposes rapidly in methanol
Structure (SMILES): COc1cc2nc(C)c(-c3ccc(Oc4ccc(OC(F)(F)F)cc4)cc3)c(OC(C)=O)c2cc1Cl [ELQ-370]
chemical stability to acid [4]: chemically unstable to mildly acidic conditions
